Results on 14 molecules are retold here after US20070015737A1, “Compounds for inhibiting diseases and preparing cells for transplantation” (Neurochem (International) Limited, priority 1999, published 2007).

Structures are written as SMILES. Values joined by “and” are separate entries in the source; they are usually repeats but may differ in a detail not shown here. Identical values can stand only once.

The target of assay [1] is T1, IAPP (Homo sapiens, UniProt P10997).
T1 sequence (P10997 34-70 limits assumed): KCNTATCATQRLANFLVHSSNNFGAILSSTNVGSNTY
Briefly: Rate of amyloid fibril formation by Thioflavine T spectroscopy (Example 1). The format is biochemical. The following applies: Thioflavine T fluorescence. The protocol: Determination of the Rate of Amyloid Fibril Formation by Thioflavine T Spectroscopy
Detection of ThT fluorescence can be used as a sensitive assay for amyloid fibril formation under different conditions. This assay has been used in experiments to determine the effects of compounds of the invention on amyloid fibril formation.
Human IAPP was dissolved in 40% trifluoroethanol and freeze-dried into conveniently-sized aliquots. IAPP was prepared immediately before the measurements by dissolving in 40% 1,1,1,3,3,3-hexafluoro-2-propanol (HFIP) in water to maintain the peptide in alpha helical conformation and soluble. A stock solution of ThT (2.5 mM) was prepared, 7.9 mg in 10 mL Tris-HCl pH 7.0 and filtered (0.22 μm). Solutions were kept in the dark until use. Fluorescence was examined at 440 nm excitation (slit 5 nm), and emission at 482 nm (slit 10 nm) with stirring. […] of ThT stock (final concentration 62.5 μM) was added to peptide sample and made up to 1 mL in the cuvette. The sample was stirred for 5 min. before taking a reading. Measurements were made at an initial time point (5 min. from sample preparation), at intervals over the next 4-6 h and after overnight incubation at room temperature.

For assay [2], the target named is T1, IAPP. The assay is described as follows: Circular dichroism analysis of β-sheet conformation (Example 2). The format is biochemical. Further details: add 10 μL of 10 mg/mL IAPP stock solution (final 100 μg peptide). Conditions: changes in ellipticity at 218 nm (β-sheet conformation); peptide:compound 1:10. On the procedure: Circular dichroism analysis was conducted to confirm the activity of certain therapeutic compounds in preventing or inhibiting IAPP-associated fibril formation in accordance with the present disclosure by determining the presence or absence of β-sheet conformation.
The assay, a co-incubation procedure, examines the ability of a compound or substance to inhibit the assembly of amyloid fibrils, e.g., to test for the presence of the amyloidotic b-sheet conformation in the presence of soluble IAPP. Samples are run in the presence and absence (i.e., water alone) of buffering agent, which is done to determine if competitive effects are seen with the ionic buffer (usually phosphate).
Add components used at a molar ratio of 1:10 [peptide:compound]; add 10 μL of 10 mg/mL IAPP stock solution (final 100 μg peptide) to the aqueous solution containing compound to a final volume of 400 μl. The pH of the final assay solution is measured to ensure there is no fluctuation and the spectrum is accumulated using the parameters as shown above.
Add desired amount of compound to achieve a 1:10 molar ratio in 10 mM phosphate buffer, pH 7. Add 10 μL of 10 mg/mL IAPP stock solution (final peptide 100 μg) to the phosphate buffered solution containing the compound and bring to a final volume of 400 μL. The pH of the final assay solution is measured to ensure there is no fluctuation and the spectrum is accumulated using the parameters as shown above.
In both assays, a control sample is run with each test group. This control contains peptide only in water or buffer at a similar final volume of 400 μl. Spectra for the control are collected initially (first run) and at the end of the test (final run) to ensure that the peptide has not undergone extensive aggregation during the course of the assay. Spectra for the controls are used to compare with the measurements obtained with the treated samples.
Make fresh 1 mg/mL stock solution of IAPP in 10 mM phosphate buffer, pH 7. Add desired amount of compound to achieve a 1:10 molar ratio in 10 mM phosphate buffer, pH 7. Incubate for 3 days at room temperature. Make up to final volume of 400 μL with 10 mM phosphate buffer, pH 7. The pH of the final assay solution is measured to ensure there is no fluctuation and the spectrum is accumulated using the parameters as shown above. A similar control is run for comparative purposes.
Plots of the spectra (control and treated) are individually assembled and the changes in ellipticity at 218 nm are examined. This minimum is directly correlated with the amount of peptide in β-sheet conformation present in the sample. Changes in either a positive or negative direction are noted and a relative value (“active” or “not active”) assigned to the compound as a measure of activity.
For orientation: Circular dichroism is widely used to follow secondary structure.

The target in a further assay is T2, Human IAPP (hIAPP) (Homo sapiens, UniProt P10997).
T2 construct: Human IAPP (hIAPP) was synthesised by solid state synthesis (Advanced Biotechnologies, UK); purchased Advanced Biotechnologies, UK; host or cells: chemical solid-phase synthesis
T2 sequence (P10997 34-70 limits assumed): T1 sequence (P10997 34-70 limits assumed)
Briefly: ELISA assay for quantitative determination of fibril formation (Example 4). Conditions: for proportion of non-fibrillar IAPP in the supernatant: IAPP 20 μM, inhibitor:IAPP molar ratio 10:1, compared to control. The format is biochemical. On the procedure: ELISA Assay for Quantitative Determination of Fibril Formation
Human IAPP (hIAPP) was synthesised by solid state synthesis (Advanced Biotechnologies, UK). Human IAPP forms fibrils immediately in aqueous media. Aliquots of IAPP in water (800 μg/ml) were stored frozen at −20° C. until use. These samples contain small numbers of fibrils visible with electron microscopy (em).
Two sets of samples containing IAPP (20 μM) with or without inhibitors (at a molar ratio of 10:1 with IAPP, (20 μM)) were prepared on day 1 in Tris buffer. One set was centrifuged, the supernatant removed and frozen immediately at −20° C. (Time zero time point). The other set was incubated overnight at room temp with shaking (time 24 h time point). On day 2 these samples were spun and supernatant removed to determine the proportion of non-fibrillar IAPP.
To assay IAPP in the supernatant both sets of samples were serially diluted in bicarbonate coating buffer, added to ELISA wells and incubated overnight. Plates were washed in phosphate buffer containing Tween (PBS/Tw)×3. Diluted antiserum raised against human IAPP was incubated on the plate for 90 minutes at 37° C. Following washing in PBS/Tw, alkaline phosphatase conjugated anti-rabbit antisera was incubated for 90 mins. Following washing in PBS/Tw, alkaline phosphate substrate was added and colour allowed to develop for 30 mins. Optical density was read at 405 nm.
Data from all samples was calculated to determine changes of IAPP concentration in the supernatant induced by the candidate substance immediately (i.e. at time zero) or after 24 h incubation. Data in FIG. 1 is expressed as the proportion of non-fibrillar IAPP in the supernatant of test samples compared to control at both time points.
(ELISA stands for enzyme-linked immunosorbent assay.)

In assay [3] the target is T1, IAPP. The assay is described as follows: Circular dichroic spectroscopy (Example 6). Type of assay: biochemical. On the procedure:
Circular Dichroic Spectroscopy
Human IAPP was prepared in 100% HFIP at 1 mg/ml filtered through a 0.31 μm filter, freeze dried in aliquots, resuspended in 20% HFIP and water, and filtered before analysis. The circular dichroic spectroscopy was performed in the same manner as described in Hubbard et al (1991) Biochem J, 275, 785-8. Samples were analysed immediately and after 24 h incubation with candidate substances i, iii, iv and x. […] After 24 h incubation the molecular conformation of IAPP (CNTL) was converted to β-conformation. […] This is prevented by the candidate compounds.

In assay [4] the test system is amyloid in transgenic islets cells expressing human IAPP. The assay is described as follows: Electron micrograph analysis of amyloid in cultured transgenic islets. The format is cell-based, mouse. From the text:
These are used as a test system for determining the toxicity and effect of putative amyloid inhibitors in short term culture systems. Whereas normal mice can be used to determine toxicity of compounds added to the media, amyloid fibrils form only in murine islets isolated from transgenic mice expressing the gene for human IAPP (transgene incorporation was confirmed by PCR). These islets are isolated in a similar way to that of human islets and are handpicked from the digest and cultured in 16.7 mM glucose as above. Amyloid fibrils formed within 4 days of culture and can be quantified by quantitative electron microscopy. […] The cells were cultured for 6 days in 11.1 mM glucose and RPMI.
Transgenic islets cells were cultured as described above, for 7 days and the media changed every two days. At the end of the culture period the islets were fixed in 2.5% glutaraldehyde in 0.1M sodium phosphate buffer (pH 7.2) for one hour and post-fixed in 1% osmium tetroxide, and embedded in Spurr's resin (Taab Laboratories, Reading, UK) or contrast enhanced in 2% Uranyl Acetate, dehydrated in methanol and embedded in LRGold (Taab, as previous). Ultrathin sections of the islets were mounted on formvar coated nickel grids. Amyloid was identified by immunogold labelling of tissue sections with an antisera raised to human IAPP 1-37, human IAPP 17-37, rat IAPP 1-37 and goat anti-rabbit gold conjugate (10 nm diameter) either from Biocell, Cardiff, UK or Sigma or by use of protein A gold. Grids were examined in a JOEL electron microscrope at an excitation voltage of 80 kV.
Images of 3 islet sections at a low magnification were prepared. A montage of each islet was made from electron micrographs and the areas of both intra and extra cellular amyloid identified and marked. The total islet area, together with the area of intra and extra cellular amyloid was then calculated using image analysis (Kontron Image Processor). 3 separate islets were examined for each condition.

Setting [5] is: after 24 h incubation, IAPP alone converted to β-conformation.
The mark [6] stands for this setting: Average of 3 islets, 7 days culture.
Where [7] appears, read: individual islets 1-3, 7 days culture.

In the case of `c1ccc2c(c1)CCNC2` [1,2,3,4-tetrahydroisoquinoline], on IAPP [1], the IAPP-associated fibril assembly entry is recorded as “inhibit or prevent IAPP-associated fibril assembly”.
For the molecule `O=S(=O)(O)CCCNCCCO` [3-(3-hydroxy-1-propyl)amino-1-propanesulfonic acid], the IAPP-associated fibril assembly entry at IAPP [1] was “inhibit or prevent IAPP-associated fibril assembly”. Also, on IAPP [2], the outcome was Active.
For `NCC(O)CS(=O)(=O)O` (stereo not shown) [3-amino-2-hydroxy-1-propanesulfonic acid] the same measures were “inhibit or prevent IAPP-associated fibril assembly” and “Active”.
As for `CN(C)CCCS(=O)(=O)O` [3-dimethylamino-1-propanesulfonic acid], at IAPP [1], the IAPP-associated fibril assembly entry is given as “inhibit or prevent IAPP-associated fibril assembly”. Moreover, the outcome on IAPP [2] was Active.
In the case of `COc1ccc(S(=O)(=O)O)c2cccnc12` [8-methoxyquinoline-5-sulfonic acid], the IAPP-associated fibril assembly entry at IAPP [1] is recorded as “inhibit or prevent IAPP-associated fibril assembly”.
As to `O=S(=O)(O)NC1CCCCC1` [cyclohexylsulfamic acid], the IAPP-associated fibril assembly result on IAPP [1] was “inhibit or prevent IAPP-associated fibril assembly”.
Turning to `O=S(=O)(O)CCCNCCCO` [i, 3-(3-hydroxy-1-propyl)amino-1-propanesulfonic acid], the “proportion of non-fibrillar IAPP in the supernatant” value (from here on “proportion of non-fibrillar IAPP”) at Human IAPP (hIAPP) is listed as “increase the proportion of non-fibrillar IAPP in the supernatant”. Besides, the “molecular conformation of IAPP (CD spectra)” value (shortened to “molecular conformation of IAPP”) at IAPP [3] (setting [5]) is listed as “remained in α-conformation”; on IAPP [3] (time zero), “typical CD spectra for α-conformation”.
As for `c1ccc2c(c1)CCNC2` [iii, 1,2,3,4-tetrahydroisoquinoline], at Human IAPP (hIAPP), the “proportion of non-fibrillar IAPP” value is reported as “increase the proportion of non-fibrillar IAPP in the supernatant”. For the same molecule, the “molecular conformation of IAPP” value at IAPP [3] (setting [5]) is on record as “remained in α-conformation”; on IAPP [3] (time zero), “typical CD spectra for α-conformation”. Further, the outcome on IAPP [2] was Active.
The like results for `O=S(=O)(O)NC1CCCCC1` [iv, Cyclohexylsulfamic acid] were, in that order, “increase the proportion of non-fibrillar IAPP in the supernatant”, “remained in α-conformation”, “typical CD spectra for α-conformation” and “Active”.
In the case of `NCC(O)CS(=O)(=O)O` (stereo not shown) [ix, 3-amino-2-hydroxy-1-propanesulfonic acid], the “proportion of non-fibrillar IAPP” value at Human IAPP (hIAPP) was “increase the proportion of non-fibrillar IAPP in the supernatant”.
Regarding `N[C@@H](COP(=O)(O)O)C(=O)O` [v, O-Phospho-L-serine], the “proportion of non-fibrillar IAPP” value on Human IAPP (hIAPP) was “increase the proportion of non-fibrillar IAPP in the supernatant”. Moreover, the IAPP-associated fibril assembly result on IAPP [1] was “inhibit or prevent IAPP-associated fibril assembly”. Further, the result at IAPP [2] was Active.
For `COc1ccc(S(=O)(=O)O)c2cccnc12` [vii, 8-methoxyquinoline-5-sulfonic acid], in assay [4] (setting [6]), the “Extra amyloid % of total” value is reported as 1.6% and the Extra amyloid area is reported as 86.8 μm^2. For the same molecule, in assay [4] (setting [7]), the “Extra amyloid % of total” value is 1.9% and 0.5% and 3.4%; the Extra amyloid area was 98.73 μm^2 and 37.9 μm^2 and 123.99 μm^2. Further, the “proportion of non-fibrillar IAPP” value on Human IAPP (hIAPP) is “increase the proportion of non-fibrillar IAPP in the supernatant”. The result at IAPP [2] was Active.
Turning to `O=S(=O)(O)CCCN1CC=C(c2ccccc2)CC1` [viii, 4-phenyl-1-(3′ sulfopropyl)-1,2,3,6-tetrahydropyridine], the “proportion of non-fibrillar IAPP” value at Human IAPP (hIAPP) is “increase the proportion of non-fibrillar IAPP in the supernatant”. Also, the IAPP-associated fibril assembly entry on IAPP [1] is reported as “inhibit or prevent IAPP-associated fibril assembly”. The outcome at IAPP [2] was Active.
Consider `CN(C)CCCS(=O)(=O)O` [x, 3-dimethylamino-1-propanesulfonic acid], for which, on Human IAPP (hIAPP), the “proportion of non-fibrillar IAPP” value is on record as “increase the proportion of non-fibrillar IAPP in the supernatant”. The “time point at which the increase of non-fibrillar IAPP was greater” value at Human IAPP (hIAPP) (time zero versus time 24 h) is listed as “greater at time zero”. The “molecular conformation of IAPP” value on IAPP [3] (setting [5]) is reported as “remained in α-conformation”; on IAPP [3] (time zero), “typical CD spectra for α-conformation”.
